The text below walks through data of ChEMBL document CHEMBL5523761 (J Med Chem, 2024).

The target in assay [1] is T1, D(2) dopamine receptor (Homo sapiens, UniProt P14416).
Assay [2] concerns the target T1, D(2) dopamine receptor. This is another data set of the same source.
For assay [3], the target named is T1, D(2) dopamine receptor. This is another data set of the same source.
Description: Antagonist activity at D2 receptor (unknown origin)
Assay [4] has as its target T2, D(1A) dopamine receptor (Homo sapiens, UniProt P21728).
Description: Binding affinity to D1 receptor (unknown origin) assessed as inhibition constant
Assay [5] concerns the target T1, D(2) dopamine receptor. This is another data set of the same source.
Description: Binding affinity to D2 receptor (unknown origin) assessed as inhibition constant
The target of assay [6] is T3, Amine oxidase [flavin-containing] A (Homo sapiens, UniProt P21397).
T3 sequence (P21397 whole entry): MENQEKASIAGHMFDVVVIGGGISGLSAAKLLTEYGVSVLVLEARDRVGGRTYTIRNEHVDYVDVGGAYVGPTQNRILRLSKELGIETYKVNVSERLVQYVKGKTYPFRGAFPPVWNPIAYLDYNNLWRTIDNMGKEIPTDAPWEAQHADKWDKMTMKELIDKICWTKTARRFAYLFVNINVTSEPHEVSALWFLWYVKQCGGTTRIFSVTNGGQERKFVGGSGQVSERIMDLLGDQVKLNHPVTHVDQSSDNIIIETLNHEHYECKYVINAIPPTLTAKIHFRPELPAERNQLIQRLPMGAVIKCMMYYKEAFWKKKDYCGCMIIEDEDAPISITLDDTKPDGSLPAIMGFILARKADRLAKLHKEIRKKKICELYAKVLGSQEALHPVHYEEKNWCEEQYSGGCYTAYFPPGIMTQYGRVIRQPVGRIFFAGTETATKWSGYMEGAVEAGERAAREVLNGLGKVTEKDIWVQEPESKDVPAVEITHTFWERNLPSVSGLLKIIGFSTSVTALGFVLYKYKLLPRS
Description: Inhibition of MAO-A (unknown origin) measured by MAO-GloTM method

Assay [7] deals with T4, Amine oxidase [flavin-containing] B (Homo sapiens, UniProt P27338).
T4 sequence (P27338 whole entry): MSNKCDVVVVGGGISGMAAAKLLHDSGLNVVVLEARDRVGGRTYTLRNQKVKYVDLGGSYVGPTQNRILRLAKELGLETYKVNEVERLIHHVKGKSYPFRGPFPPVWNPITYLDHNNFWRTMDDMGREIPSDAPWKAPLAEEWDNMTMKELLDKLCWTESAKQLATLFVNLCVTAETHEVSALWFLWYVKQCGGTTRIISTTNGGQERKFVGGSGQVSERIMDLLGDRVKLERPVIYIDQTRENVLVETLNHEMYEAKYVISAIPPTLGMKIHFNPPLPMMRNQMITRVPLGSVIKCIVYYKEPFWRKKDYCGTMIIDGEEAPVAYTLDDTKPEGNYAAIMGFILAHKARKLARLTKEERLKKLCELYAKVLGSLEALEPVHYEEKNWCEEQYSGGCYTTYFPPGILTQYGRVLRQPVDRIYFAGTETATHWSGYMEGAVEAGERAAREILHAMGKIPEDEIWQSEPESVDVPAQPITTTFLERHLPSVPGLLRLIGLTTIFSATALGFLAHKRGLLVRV
Description: Inhibition of MAO-B (unknown origin) measured by MAO-GloTM method

In assay [8] the target is T5, D(4) dopamine receptor (Homo sapiens, UniProt P21917).
T5 sequence (P21917 whole entry): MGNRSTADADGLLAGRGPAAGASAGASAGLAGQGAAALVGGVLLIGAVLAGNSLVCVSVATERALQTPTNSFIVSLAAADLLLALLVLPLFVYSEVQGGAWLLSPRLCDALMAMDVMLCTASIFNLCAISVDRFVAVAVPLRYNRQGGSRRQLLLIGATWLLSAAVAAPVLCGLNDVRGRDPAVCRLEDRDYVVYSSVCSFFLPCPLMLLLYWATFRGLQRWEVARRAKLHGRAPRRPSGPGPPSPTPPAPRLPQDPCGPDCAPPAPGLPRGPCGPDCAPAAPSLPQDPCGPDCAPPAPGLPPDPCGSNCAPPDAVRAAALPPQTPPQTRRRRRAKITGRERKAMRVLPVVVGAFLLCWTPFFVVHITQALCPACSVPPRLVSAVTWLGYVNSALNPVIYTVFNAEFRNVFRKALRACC
Description: Agonist activity at D4 receptor (unknown origin)

In assay [9] the target is T2, D(1A) dopamine receptor. The source holds these as a separate data set.
Description: Inhibition of D1 receptor (unknown origin)
Assay [10] has as its target T1, D(2) dopamine receptor. The source holds these as a separate data set.
Description: Inhibition of D2 receptor (unknown origin)
Assay [11] has as its target T6, Alpha-1A adrenergic receptor (Homo sapiens, UniProt P35348).
T6 sequence (P35348 whole entry): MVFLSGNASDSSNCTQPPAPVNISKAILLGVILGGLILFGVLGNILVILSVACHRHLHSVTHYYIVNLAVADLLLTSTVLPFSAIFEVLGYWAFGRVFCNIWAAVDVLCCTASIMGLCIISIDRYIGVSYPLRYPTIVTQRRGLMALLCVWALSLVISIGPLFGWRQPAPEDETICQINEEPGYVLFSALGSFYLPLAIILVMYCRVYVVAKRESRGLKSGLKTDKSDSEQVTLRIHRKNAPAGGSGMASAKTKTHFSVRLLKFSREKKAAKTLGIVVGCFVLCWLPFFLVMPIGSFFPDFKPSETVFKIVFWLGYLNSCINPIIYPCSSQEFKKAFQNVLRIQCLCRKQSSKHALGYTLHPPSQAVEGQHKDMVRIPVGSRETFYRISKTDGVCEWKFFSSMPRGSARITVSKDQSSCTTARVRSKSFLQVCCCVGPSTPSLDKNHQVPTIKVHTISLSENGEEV
Description: Binding affinity to alpha1A adrenergic receptor (unknown origin) assessed as inhibition constant

Assay [12] addresses D(3) dopamine receptor (Homo sapiens, UniProt P35462).
Description: Binding affinity to D3 receptor (unknown origin) assessed as inhibition constant
Assay [13] deals with T1, D(2) dopamine receptor. The source holds these as a separate data set.
Description: Binding affinity to D2S receptor (unknown origin) assessed as inhibition constant
For assay [14], the target named is T5, D(4) dopamine receptor. This is another data set of the same source.
Description: Binding affinity to D4 receptor (unknown origin) assessed as inhibition constant
Assay [15] addresses 5-hydroxytryptamine receptor 1B (Homo sapiens, UniProt P28222).
Description: Binding affinity to 5HT1B receptor (unknown origin) assessed as inhibition constant
The target in assay [16] is T7, Alpha-2C adrenergic receptor (Homo sapiens, UniProt P18825).
T7 sequence (P18825 whole entry): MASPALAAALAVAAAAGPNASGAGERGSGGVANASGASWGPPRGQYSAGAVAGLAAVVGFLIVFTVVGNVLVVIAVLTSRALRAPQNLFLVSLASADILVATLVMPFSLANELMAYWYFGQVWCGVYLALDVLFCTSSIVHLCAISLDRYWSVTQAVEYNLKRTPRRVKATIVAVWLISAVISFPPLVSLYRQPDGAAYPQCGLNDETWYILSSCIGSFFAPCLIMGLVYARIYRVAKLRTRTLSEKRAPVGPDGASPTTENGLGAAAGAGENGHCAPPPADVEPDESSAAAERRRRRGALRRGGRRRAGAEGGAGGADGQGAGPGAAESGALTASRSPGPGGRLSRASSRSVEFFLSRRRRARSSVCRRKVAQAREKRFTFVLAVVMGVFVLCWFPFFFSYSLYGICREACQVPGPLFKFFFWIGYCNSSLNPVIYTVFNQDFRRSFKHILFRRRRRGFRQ
Description: Binding affinity to alpha2C adrenergic receptor (unknown origin) assessed as inhibition constant

The target of assay [17] is 5-hydroxytryptamine receptor 2A (Homo sapiens, UniProt P28223).
Sequence of 5-hydroxytryptamine receptor 2A (P28223 whole entry): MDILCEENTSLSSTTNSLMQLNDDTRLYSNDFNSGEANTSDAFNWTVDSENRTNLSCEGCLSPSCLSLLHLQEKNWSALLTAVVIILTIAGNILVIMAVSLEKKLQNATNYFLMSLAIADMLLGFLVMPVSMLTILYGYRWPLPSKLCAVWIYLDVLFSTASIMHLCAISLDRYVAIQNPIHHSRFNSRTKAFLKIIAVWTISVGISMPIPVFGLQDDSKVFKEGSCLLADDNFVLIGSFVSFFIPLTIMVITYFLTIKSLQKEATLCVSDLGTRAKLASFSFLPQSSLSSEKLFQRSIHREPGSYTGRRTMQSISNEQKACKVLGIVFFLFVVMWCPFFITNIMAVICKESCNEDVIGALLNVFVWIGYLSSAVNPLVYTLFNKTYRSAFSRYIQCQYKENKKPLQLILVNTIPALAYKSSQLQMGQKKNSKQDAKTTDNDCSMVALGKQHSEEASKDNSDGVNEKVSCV
Description: Binding affinity to 5HT2A (unknown origin) assessed as inhibition constant
For assay [18], the target named is 5-hydroxytryptamine receptor 7 (Homo sapiens, UniProt P34969).
Sequence of 5-hydroxytryptamine receptor 7 (P34969 whole entry): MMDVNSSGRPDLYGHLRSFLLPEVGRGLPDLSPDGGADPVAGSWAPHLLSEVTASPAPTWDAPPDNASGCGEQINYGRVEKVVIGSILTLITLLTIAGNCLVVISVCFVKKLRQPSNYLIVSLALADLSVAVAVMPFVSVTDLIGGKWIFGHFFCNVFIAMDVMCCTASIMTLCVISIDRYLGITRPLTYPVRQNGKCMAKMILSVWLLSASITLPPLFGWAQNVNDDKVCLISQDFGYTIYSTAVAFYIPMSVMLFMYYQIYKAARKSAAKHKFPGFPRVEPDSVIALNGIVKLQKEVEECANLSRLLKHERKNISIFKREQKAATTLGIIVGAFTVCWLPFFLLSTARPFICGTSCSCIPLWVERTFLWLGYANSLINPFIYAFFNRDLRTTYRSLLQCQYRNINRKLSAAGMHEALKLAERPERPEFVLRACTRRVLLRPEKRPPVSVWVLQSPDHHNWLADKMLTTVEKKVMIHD
Description: Binding affinity to 5HT7 receptor (unknown origin) assessed as inhibition constant
Assay [19] deals with 5-hydroxytryptamine receptor 1D (Homo sapiens, UniProt P28221).
Sequence of 5-hydroxytryptamine receptor 1D (P28221 whole entry): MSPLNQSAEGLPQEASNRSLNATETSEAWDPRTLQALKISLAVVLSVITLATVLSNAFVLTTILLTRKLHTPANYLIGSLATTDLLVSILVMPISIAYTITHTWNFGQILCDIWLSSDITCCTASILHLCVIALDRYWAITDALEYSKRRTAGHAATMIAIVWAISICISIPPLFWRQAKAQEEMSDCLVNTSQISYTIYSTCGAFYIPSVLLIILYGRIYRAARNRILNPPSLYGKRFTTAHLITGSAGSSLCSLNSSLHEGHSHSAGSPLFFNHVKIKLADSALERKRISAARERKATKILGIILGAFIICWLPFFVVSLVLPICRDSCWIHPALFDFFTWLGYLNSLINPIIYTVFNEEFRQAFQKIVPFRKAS
Description: Binding affinity to 5HT1D receptor (unknown origin) assessed as inhibition constant
The target in assay [20] is T8, 5-hydroxytryptamine receptor 2C (Homo sapiens, UniProt P28335).
T8 sequence (P28335 whole entry): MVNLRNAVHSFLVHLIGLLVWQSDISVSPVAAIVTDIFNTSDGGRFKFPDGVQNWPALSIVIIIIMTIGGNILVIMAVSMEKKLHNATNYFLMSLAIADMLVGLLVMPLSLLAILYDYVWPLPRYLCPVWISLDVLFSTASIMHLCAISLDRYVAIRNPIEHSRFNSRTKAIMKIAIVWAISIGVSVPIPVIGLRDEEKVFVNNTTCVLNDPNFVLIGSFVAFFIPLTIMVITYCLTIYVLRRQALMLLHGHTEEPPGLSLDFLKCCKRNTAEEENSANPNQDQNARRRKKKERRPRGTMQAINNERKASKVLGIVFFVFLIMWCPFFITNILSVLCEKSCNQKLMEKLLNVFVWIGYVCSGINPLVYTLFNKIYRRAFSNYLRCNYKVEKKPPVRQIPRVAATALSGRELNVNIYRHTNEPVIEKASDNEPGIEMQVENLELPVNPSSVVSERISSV
Description: Binding affinity to 5HT2C receptor (unknown origin) assessed as inhibition constant

Assay [21] addresses T1, D(2) dopamine receptor. This is another data set of the same source.
Description: Binding affinity to D2L receptor (unknown origin) assessed as inhibition constant
Assay [22] concerns the target Beta-secretase 1 (Homo sapiens, UniProt P56817).
Description: Inhibition of BACE1 (unknown origin) by FRET assay
Assay [23] concerns the target Cholinesterase (Homo sapiens, UniProt P06276).
Description: Inhibition of BChE (unknown origin) by Ellman's colorimetric method
For assay [24], the target named is Acetylcholinesterase (Homo sapiens, UniProt P22303).
Sequence of Acetylcholinesterase (P22303 whole entry): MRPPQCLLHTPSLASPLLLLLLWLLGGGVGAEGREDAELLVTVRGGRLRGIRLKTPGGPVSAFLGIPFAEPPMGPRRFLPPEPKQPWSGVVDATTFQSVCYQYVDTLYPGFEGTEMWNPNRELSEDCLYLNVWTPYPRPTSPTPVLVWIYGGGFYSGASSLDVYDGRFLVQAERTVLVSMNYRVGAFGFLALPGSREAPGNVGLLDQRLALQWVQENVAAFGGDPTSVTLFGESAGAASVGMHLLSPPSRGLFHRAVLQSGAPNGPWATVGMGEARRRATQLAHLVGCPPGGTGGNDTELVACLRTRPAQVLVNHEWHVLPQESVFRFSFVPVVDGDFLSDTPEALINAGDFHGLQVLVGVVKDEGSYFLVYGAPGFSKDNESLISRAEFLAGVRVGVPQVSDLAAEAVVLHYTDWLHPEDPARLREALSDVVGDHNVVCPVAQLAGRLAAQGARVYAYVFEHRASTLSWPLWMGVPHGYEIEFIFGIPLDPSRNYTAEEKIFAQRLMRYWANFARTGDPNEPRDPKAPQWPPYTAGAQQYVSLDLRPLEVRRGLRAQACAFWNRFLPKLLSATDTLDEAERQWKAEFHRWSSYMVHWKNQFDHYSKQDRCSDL
Description: Inhibition of AChE (unknown origin) by Ellman's colorimetric method

Sequence of D(3) dopamine receptor (P35462 whole entry): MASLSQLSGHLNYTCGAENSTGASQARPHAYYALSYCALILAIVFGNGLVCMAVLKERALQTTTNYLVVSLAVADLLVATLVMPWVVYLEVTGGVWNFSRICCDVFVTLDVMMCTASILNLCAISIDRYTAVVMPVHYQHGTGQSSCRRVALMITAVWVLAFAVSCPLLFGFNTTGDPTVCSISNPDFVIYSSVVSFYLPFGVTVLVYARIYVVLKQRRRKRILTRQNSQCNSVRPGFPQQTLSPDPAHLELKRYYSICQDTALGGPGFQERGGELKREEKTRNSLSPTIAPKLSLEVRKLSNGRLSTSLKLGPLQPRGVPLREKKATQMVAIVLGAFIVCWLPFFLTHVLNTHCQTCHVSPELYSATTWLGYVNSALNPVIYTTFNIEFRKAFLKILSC
T2 sequence (P21728 whole entry): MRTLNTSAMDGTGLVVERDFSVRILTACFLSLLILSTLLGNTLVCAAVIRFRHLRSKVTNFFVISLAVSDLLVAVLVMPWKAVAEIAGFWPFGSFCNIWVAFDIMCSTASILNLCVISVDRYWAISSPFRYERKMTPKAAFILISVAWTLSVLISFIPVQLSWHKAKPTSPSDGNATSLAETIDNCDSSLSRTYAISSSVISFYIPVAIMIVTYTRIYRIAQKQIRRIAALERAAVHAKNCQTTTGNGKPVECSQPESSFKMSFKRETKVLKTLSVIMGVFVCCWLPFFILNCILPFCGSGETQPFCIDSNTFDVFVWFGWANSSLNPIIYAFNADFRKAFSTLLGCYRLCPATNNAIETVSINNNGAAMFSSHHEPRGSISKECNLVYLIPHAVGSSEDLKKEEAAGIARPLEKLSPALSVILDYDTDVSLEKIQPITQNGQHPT
T1 sequence (P14416 whole entry): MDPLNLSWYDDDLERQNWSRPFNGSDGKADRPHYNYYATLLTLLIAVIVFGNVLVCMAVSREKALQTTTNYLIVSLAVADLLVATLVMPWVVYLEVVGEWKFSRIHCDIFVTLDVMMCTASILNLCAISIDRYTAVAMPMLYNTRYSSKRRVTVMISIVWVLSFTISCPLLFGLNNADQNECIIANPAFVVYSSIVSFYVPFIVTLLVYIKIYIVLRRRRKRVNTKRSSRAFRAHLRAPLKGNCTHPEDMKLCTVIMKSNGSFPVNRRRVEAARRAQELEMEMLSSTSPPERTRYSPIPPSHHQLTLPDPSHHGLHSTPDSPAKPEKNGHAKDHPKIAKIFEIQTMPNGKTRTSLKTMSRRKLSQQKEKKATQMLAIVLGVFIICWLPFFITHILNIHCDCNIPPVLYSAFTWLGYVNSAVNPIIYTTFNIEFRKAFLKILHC
Sequence of 5-hydroxytryptamine receptor 1B (P28222 whole entry): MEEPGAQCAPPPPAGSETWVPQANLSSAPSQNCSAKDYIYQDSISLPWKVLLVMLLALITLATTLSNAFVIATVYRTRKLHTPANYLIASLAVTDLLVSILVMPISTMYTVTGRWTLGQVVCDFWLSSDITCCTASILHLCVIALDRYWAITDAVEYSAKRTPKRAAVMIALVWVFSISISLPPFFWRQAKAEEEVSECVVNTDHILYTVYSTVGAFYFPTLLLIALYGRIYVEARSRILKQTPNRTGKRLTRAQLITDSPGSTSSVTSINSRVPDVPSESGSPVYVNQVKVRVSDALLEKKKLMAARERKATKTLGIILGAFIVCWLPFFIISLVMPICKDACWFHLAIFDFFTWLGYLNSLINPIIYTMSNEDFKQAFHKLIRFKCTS
Sequence of Beta-secretase 1 (P56817 whole entry): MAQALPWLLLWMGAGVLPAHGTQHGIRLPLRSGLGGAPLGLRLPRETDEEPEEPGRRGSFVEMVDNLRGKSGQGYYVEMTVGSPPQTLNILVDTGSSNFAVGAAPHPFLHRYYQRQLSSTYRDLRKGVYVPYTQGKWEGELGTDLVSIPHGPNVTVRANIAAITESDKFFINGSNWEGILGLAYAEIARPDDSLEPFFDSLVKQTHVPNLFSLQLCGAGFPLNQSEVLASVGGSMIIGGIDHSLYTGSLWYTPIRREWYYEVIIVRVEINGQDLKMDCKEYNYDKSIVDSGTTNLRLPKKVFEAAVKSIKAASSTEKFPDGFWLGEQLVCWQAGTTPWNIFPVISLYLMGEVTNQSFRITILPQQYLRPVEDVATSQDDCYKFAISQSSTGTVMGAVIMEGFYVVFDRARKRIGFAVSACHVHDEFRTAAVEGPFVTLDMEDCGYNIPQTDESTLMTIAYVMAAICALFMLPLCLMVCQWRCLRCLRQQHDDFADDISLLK
Sequence of Cholinesterase (P06276 whole entry): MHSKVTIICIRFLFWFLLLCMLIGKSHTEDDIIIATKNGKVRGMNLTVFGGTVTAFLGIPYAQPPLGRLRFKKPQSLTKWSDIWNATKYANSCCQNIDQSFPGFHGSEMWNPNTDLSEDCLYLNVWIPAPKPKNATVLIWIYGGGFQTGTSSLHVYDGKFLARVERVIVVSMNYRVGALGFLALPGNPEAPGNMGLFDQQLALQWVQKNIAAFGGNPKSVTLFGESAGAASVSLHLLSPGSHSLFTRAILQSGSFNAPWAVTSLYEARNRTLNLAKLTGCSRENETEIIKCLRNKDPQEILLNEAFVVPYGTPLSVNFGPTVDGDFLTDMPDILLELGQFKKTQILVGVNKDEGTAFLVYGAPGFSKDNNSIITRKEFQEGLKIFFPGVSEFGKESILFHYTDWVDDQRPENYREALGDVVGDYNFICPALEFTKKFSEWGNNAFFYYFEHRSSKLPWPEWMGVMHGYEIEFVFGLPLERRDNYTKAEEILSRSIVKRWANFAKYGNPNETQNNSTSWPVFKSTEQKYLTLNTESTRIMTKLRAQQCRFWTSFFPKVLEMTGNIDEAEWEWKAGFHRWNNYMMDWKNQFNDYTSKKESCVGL

For orientation: IC50 means the concentration at which inhibition is half-maximal. A higher IC50 goes with weaker potency in that assay. As to `COc1ccc2cc3[n+](cc2c1OC)CCc1cc2c(cc1-3)OCO2` [BERBERINE CHLORIDE], the half-inhibitory concentration (IC50) in assay [1] amounted to 17100 nM; in assay [2] it was 38600 nM.
Molecule `COc1cc2c(cc1O)C[C@H]1c3c(cc(O)c(OC)c3-2)CCN1C` [BOLDINE] had an IC50 in assay [3] of 520 nM.
As usually defined, the Ki is the equilibrium dissociation constant of an inhibitor or competing ligand from its target. A high value points to a looser hold on the target. `CCCN1CCc2cccc3c2[C@H]1Cc1cccc(O)c1-3` had a Ki in assay [4] of 699 nM.
On to `CCCCC(=O)Oc1cccc2c1-c1cccc3c1[C@@H](C2)N(CCC)CC3`, for which the Ki in assay [5] is 340 nM; in [4] it was above 20000 nM.
The EC50 is the concentration that produces a half-maximal response. High values mean weaker potency, low ones greater potency. On to `OCc1c(Br)c(O)c(O)c(Br)c1Br`, for which the half-inhibitory concentration (IC50) in assay [6] was 205000 nM; in [7], 151000 nM. The molecule further gave a half-maximal effective concentration (EC50) in [8] of 57200 nM.
As for `CCN1CCc2cc(OCCF)cc3c2[C@H]1Cc1cccc(O)c1-3`, the affinity in assay [4] corresponds to a Ki of 0.83 nM.
`COc1cc2c(cc1O)Oc1c(O)ccc3c1[C@H](C2)N(C)CC3` [CELTISINE]: the half-maximal inhibitory concentration (IC50) in assay [9] came out at 60 nM; in assay [10], 30 nM.
For the molecule `COc1cc2c(cc1OC)Oc1c(O)ccc3c1[C@@H](C2)N(C)CC3`, the IC50 worked out at 80 nM in [9] and 320 nM in [10].
For `CCCN1C[C@H](CSC)C[C@@H]2c3cccc4[nH]cc(c34)C[C@H]21` [PERGOLIDE], the Ki in [11] came to 888 nM.
As for `CCCN1CCc2cccc3c2[C@H]1Cc1cccc(OC(C)=O)c1-3`, the inhibitory constant (Ki) in [5] is 72.3 nM; in assay [4], above 10000 nM.
Take `CC(C)C[C@H]1C(=O)N2CCC[C@H]2[C@]2(O)O[C@](NC(=O)[C@@H]3C=C4c5cccc6[nH]c(Br)c(c56)C[C@H]4N(C)C3)(C(C)C)C(=O)N12` [BROMOCRIPTINE]: the inhibition constant (Ki) in [4] was 3420 nM; in assay [11] it was 18 nM.
Regarding `COc1cc2c(cc1O)C[C@@H]1c3c(ccc(O)c3O2)CCN1C`, the concentration for half-maximal inhibition (IC50) was determined as 100 nM in [9] and 220 nM in assay [10].
As for `COc1ccc(C[C@H]2c3cc(O)c(OC)cc3CCN2C)cc1O` [(S)-RETICULINE], the values for the half-maximal inhibitory concentration (IC50) in assay [9] and in assay [10] were 1800 nM and 470 nM, respectively.
In [10], `C=C1CCC[C@]2(C)Cc3occ(C)c3C[C@@H]12` [ATRACTYLON] displayed a 50% inhibitory concentration (IC50) of 2500 nM.
Consider `COC1=CC2C[C@@H]3c4cc(O)c(OC)cc4CCN3CC2C=C1O` (stereo partly specified), for which the Ki in [12] came to 606 nM; in assay [4], 8.75 nM; in assay [13], 708 nM.
On to `COc1cc2c(cc1O)[C@@H]1Cc3ccc(O)c(OC)c3CN1CC2` [STEPHOLIDINE], for which the Ki stood at 11.6 nM in assay [5], 23.4 nM in [12], 5.1 nM in assay [4] and 1450 nM in assay [14].
`Oc1cc2c(cc1O)C1Cc3cccc(O)c3CN1CC2` (stereo unspecified): the results for the inhibition constant Ki in [12] and in assay [4] were 93 nM and 3800 nM, respectively.
Take `COc1cc2c(cc1OC)[C@@H]1Cc3ccc(OC)c(OC)c3CN1CC2` [TETRAHYDROPALMATINE]: the Ki in [5] is 388 nM; in assay [4], 124 nM.
In the case of `COc1cc2c(cc1O)[C@@H]1Cc3ccc(OC)c(OC)c3CN1CC2`, the Ki in assay [4] came to […].
`COc1cc2c(cc1O)CN1CCc3cc(OC)c(O)cc3[C@@H]1C2` showed a Ki in [13] of 514 nM.
`CCCN1CCc2cc(OCCCF)cc3c2[C@H]1Cc1cccc(O)c1-3` had a Ki in assay [4] of 0.54 nM.
As to `Cc1nc2n(c(=O)c1CCN1CCC(c3noc4cc(F)ccc34)CC1)CCCC2O` (stereo unspecified) [PALIPERIDONE], the inhibition constant Ki was 1.6 nM in assay [5]; 7.5 nM in [12]; 111 nM in assay [15]; 2.7 nM in assay [16]; 554 nM in assay [4]; 11 nM in [11]. Further, the Ki was 0.83 nM in [17], 6.8 nM in assay [18], 7.3 nM in assay [19] and 19 nM in assay [20].
Regarding `COc1cc2c(cc1OC)-c1c(OC)c(OC)cc3c1[C@H](C2)N(C)CC3` [GLAUCINE], it took 3020 nM to reach half-maximal inhibition in assay [3] (IC50).
Consider `C=CCN1C[C@H](C(=O)N(CCCN(C)C)C(=O)NCC)C[C@@H]2c3cccc4[nH]cc(c34)C[C@H]21` [CABERGOLINE], for which the Ki in assay [21] came out at 0.36 nM; in [5], 0.36 nM; in assay [4] it was 3800 nM.
Consider `C=C(C)[C@H](CC=C(C)C)Cc1c(O)cc(OC)c2c1O[C@H](c1ccc(O)cc1O)CC2=O`, for which the values for the concentration for half-maximal inhibition (IC50) in [22], in [23] and in assay [24] were 24500 nM, 5290 nM and 42100 nM, respectively.
Turning to `OCCN1CCN(CCCN2c3ccccc3Sc3ccc(C(F)(F)F)cc32)CC1` [FLUPHENAZINE], affinity in assay [14] was put at a Ki of 130 nM.
